Values of other authors in publication PMC5346970 (Journal of Medicinal Chemistry, 2017).
Values joined by “and” are separate entries in the source; they are usually repeats but may differ in a detail not shown here. Identical values can stand only once. Like-named read-outs stand apart in the source and are kept apart here.

Assays:
[1] = for conjugate level in blood: 3.6 g daily dose, all six subjects
Alzheimer’s disease = settings: for mean plasma level three hours post-treatment / mean baseline plasma level at 24 weeks: LC/MS/MS; for mean plasma level three hours post-treatment: 24 weeks
[2] = tested on: histone methyltransferase G9a; settings: counterscreen
[3] = tested on: SERCA (sarcoplasmic/endoplasmic reticulum calcium) pump; settings: previously reported
mutant CFTR (ΔF508 mice) = settings: 45 mg kg^–1 day^–1 oral; not reproduced by independent lab (ref 139)
HAT Gcn5 = settings: in vitro
[4] = synthetic 1, rats
[5] = tested on: amyloid-β (Aβ) fibril formation; settings: ThT assay
[6] = room temperature, neutral pH
[7] = at 2 h, one individual, single 12 g oral dose
CB2 = settings: repeated experiments after retraction
[8] = tested on: murine macrophage cells, J774.1; settings: read-out: cytotoxicity IC50; murine macrophage cell line
[9] = mice fed diets poor in iron
[10] = tested on: advanced pancreatic cancer; settings: 8 g/day oral, steady state on day 3
[11] = tested on: cannabinoid receptor 1 (CB1); settings: repeated experiments after retraction
Aβ = settings: transmission electron microscopy, in vitro
[12] = depending on solvent and method
GSK-3β = settings: no DTT, 30–90 min incubation

## O=S(=O)(O)O [Sulfate]
[1]
  conjugate level in blood: 8.9 ± 0.7 nmol/L

## COc1cc(/C=C/C(=O)CC(=O)/C=C/c2ccc(O[C@@H]3O[C@H](C(=O)O)[C@@H](O)[C@H](O)[C@H]3O)c(OC)c2)ccc1O [glucuronidated 1]
Alzheimer’s disease
  mean plasma level three hours post-treatment: 96.05 ± 26 ng/mL
[1]
  conjugate level in blood: 15.8 ± 0.9 nmol/L

## COc1cc(CCC(=O)CC(=O)CCc2ccc(OC3OC(C(=O)O)C(O)C(O)C3O)c(OC)c2)ccc1O (centres unmarked) [glucuronidated tetrahydrocurcumin]
Alzheimer’s disease
  mean plasma level three hours post-treatment: 298.2 ± 140.0 ng/mL

## COc1cc(CCC(=O)CC(=O)CCc2ccc(O)c(OC)c2)ccc1O [tetrahydrocurcumin]
Alzheimer’s disease
  mean baseline plasma level at 24 weeks: 6.86 ± 1.69 ng/mL
  mean plasma level three hours post-treatment: 3.73 ± 2.0 ng/mL

## (1E,6E)-1,7-bis(4-hydroxy-3-methoxyphenyl)-1,6-heptadiene-3,5-dione [Compound 1]
[2]
  activity versus G9a: failed to show any activity
[3]
  in vitro activity: 5 to 15 µM
pH 7.5, rt, aqueous buffer
  t1/2 for loss of parent compound: approximately 20 min
Samples prepared in clear versus amber glass
  reduction in parent material: 5%
Solvolysis in aqueous alkaline buffer, within 30 min
  compound degradation: 90%
Malate dehydrogenase; with Triton X-100
  IC50: > 30 µM
Malate dehydrogenase; without Triton X-100
  IC50: 9 µM
Mutant CFTR (ΔF508 mice)
  effect on phenotypic deficits: ameliorated phenotypic deficits
AmpC β-lactamase; with Triton X-100
  IC50: > 30 µM
AmpC β-lactamase; without Triton X-100
  IC50: 12 µM
HAT Gcn5
  inhibition of Gcn5: failed to inhibit
[4]
  oral bioavailability: less than 1%
Alzheimer’s disease
  mean baseline plasma level at 24 weeks: 2.67 ± 1.69 ng/mL
  mean plasma level three hours post-treatment: 7.76 ± 3.23 ng/mL
Alzheimer’s disease; one sample, 4 h after a 4 g dose, below assay LLOD
  plasma level by HPLC: 6 ng/mL
HAT PCAF; counterscreen
  activity versus PCAF: failed to show any activity
HAT PCAF; in vitro
  inhibition of PCAF: failed to inhibit
[5]
  IC50: 1 to 64 µM
[6]
  solubility in water: practically insoluble
[6]; confounded by aggregation
  solubility in water (estimate): 1 to 10 µg/mL
Caco-2 model system
  Papp: 3.18 × 10^–6 ± 1.08 × 10^–6 cm/s
[7]
  peak serum level: 57.6 ng/mL and 156 nmol/L
CB2
  inhibition of CB2: low micromolar inhibitor
HIV-2 protease; with Triton X-100
  IC50: > 100 µM
HIV-2 protease; without Triton X-100
  IC50: 9 µM
[8]
  IC50: 31 µM
[9]
  iron status: inducing a state of overt iron deficiency
Tau fibril formation
  activity in FP secondary screen: inactive
[10]
  plasma level: 22 to 41 ng/mL
[11]
  inhibition of CB1: low micromolar inhibitor
Aβ
  effect on aggregation of Aβ: does not affect the aggregation
[1]; 3.6 g daily, 1 h time point
  level in blood as reported: 0.6 nM
[12]
  pKa, first phenolic proton: 8.5–10.4
  pKa, second phenolic proton: 9.5–10.7
GSK-3β
  IC50: 0.066 µM
